Measurements reported in patent US20250340538A1, “IMIDAZOLONE DERIVATIVES AS INHIBITORS OF PROTEIN KINASES IN PARTICULAR DYRK1A, CLK1 AND/OR CLK4” (PERHA PHARMACEUTICALS, priority 2021, published 2025).
Read-outs that look alike come from different tables or passages of the source.

Assays:
[1] = target: T1, CLK1 (Homo sapiens, UniProt P49759); experiment: Radiometric protein kinase assay (33PanQinase Activity Assay), CLK1; type: biochemical; conditions: read-out: Potency Class CLK1
T1 construct: GST-fusion or His-tag (not specified per kinase); purchased ProQinase GmbH; host or cells: Sf9 insect cells or E. coli (not specified per kinase)
T1 sequence (P49759 whole entry, the tested form may be a part): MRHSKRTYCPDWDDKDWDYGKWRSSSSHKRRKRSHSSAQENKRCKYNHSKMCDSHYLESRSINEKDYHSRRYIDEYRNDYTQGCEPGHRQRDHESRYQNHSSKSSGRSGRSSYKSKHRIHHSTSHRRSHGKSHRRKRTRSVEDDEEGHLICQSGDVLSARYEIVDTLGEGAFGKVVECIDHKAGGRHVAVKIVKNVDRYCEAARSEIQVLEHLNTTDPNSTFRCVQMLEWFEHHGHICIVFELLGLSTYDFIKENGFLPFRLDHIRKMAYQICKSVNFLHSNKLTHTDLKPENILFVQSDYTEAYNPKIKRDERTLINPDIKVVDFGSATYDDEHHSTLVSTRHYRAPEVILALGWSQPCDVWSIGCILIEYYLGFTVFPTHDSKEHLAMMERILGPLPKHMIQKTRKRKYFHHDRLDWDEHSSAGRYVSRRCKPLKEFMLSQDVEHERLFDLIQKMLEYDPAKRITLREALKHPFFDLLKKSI
Experimental: Assays were performed by ProQinase GmbH (Engesserstr. 4, D-79108 Freiburg, Germany. www.proqinase.com). The IC50 profile of all compounds was determined using 12 protein kinases (CDK2/cyclin E, CK1ε, CLK1, 2, 3, 4, DYRK1A, 1B, 2, 3, 4, GSK3β).
(§1) The compounds were provided as […] in 100% DMSO. Prior to testing, the 1 μM stock solutions were subjected to a serial, semi-logarithmic dilution using 100% DMSO as a solvent. […] In the process, 90 μl H2O were added to each well of each compound dilution plate. To minimize potential precipitation, the H2O was added to each plate only a few minutes before the transfer of the compound solutions into the assay plates. The plate was shaken thoroughly, resulting in a compound dilution plate/10% DMSO.
(§2) For the assays (see below), 5 μL solution from each well of the compound dilution plates/10% DMSO were transferred into the assay plates. The final volume of the assay was 50 μL. All compounds were tested at 10 final assay concentrations in the range from 10 μM to 30 nM. The final DMSO concentration in the reaction cocktails was 1% in all cases.
(§3) All protein kinases provided by ProQinase were expressed in Sf9 insect cells or in E. coli as recombinant GST-fusion proteins or His-tagged proteins, either as full-length or enzymatically active fragments. All kinases were produced from human cDNAs and purified by either GSH-affinity chromatography or immobilized metal. Affinity tags were removed from a number of kinases during purification. The purity of the protein kinases was examined by SDS-PAGE/Coomassie staining, the identity was checked by mass spectroscopy.
(§4) A radiometric protein kinase assay (33PanQinase® Activity Assay) was used for measuring the kinase activity of the 12 protein kinases. All kinase assays were performed in 96-well FlashPlates™ from PerkinElmer (Boston, MA, USA) in a 50 μL reaction volume. The reaction cocktail was pipetted in four steps in the following order: • 25 μL of assay buffer (standard buffer/[γ-^33P]-ATP), • 10 μL of ATP solution (in H2O), • 5 μL of test compound (in 10% DMSO), • 10 μL of enzyme/substrate mixture.
(§5) The reaction cocktails were incubated at 30° C. for 60 minutes. The reaction was stopped with 50 μL of 2% (v/v) H3PO4, plates were aspirated and washed two times with 200 μL 0.9% (w/v) NaCl. Incorporation of ^33Pi was determined with a microplate scintillation counter (Microbeta, Wallac). The IC50 values for all compounds were calculated from the dose response curves
As a parameter for assay quality, the Z′-factor (Zhang et al., J. Biomol. Screen. 2: 67-73, 1999) for the low and high controls of each assay plate (n=8) was used. ProQinase's criterion for repetition of an assay plate is a Z′-factor below 0.4 (Iversen et al., J. Biomol. Screen. 3: 247-252, 2006).

[2] = target: T2, DYRK1A (Homo sapiens, UniProt Q13627); experiment: Radiometric protein kinase assay (33PanQinase Activity Assay), DYRK1A; type: biochemical; conditions: for Selectivity Class DYRK1A vs. CLK1: ratio of IC50 on CLK1 over IC50 on DYRK1A; for Selectivity Class DYRK1A vs. DYRK1B: ratio of IC50 on DYRK1B over IC50 on DYRK1A
T2 construct: GST-fusion or His-tag (not specified per kinase); purchased ProQinase GmbH; host or cells: Sf9 insect cells or E. coli (not specified per kinase)
Experimental: The IC50 profile of all compounds was determined using 12 protein kinases (CDK2/cyclin E, CK1ε, CLK1, 2, 3, 4, DYRK1A, 1B, 2, 3, 4, GSK3β).
as §1, §2, §3, §4, §5

[3] = class by IC50 on CLK1, from dose-response curves
[4] = class by IC50 on DYRK1A, from dose-response curves, read-out: Potency Class DYRK1A

SMILES	IC50 [1, 3] [nM]	IC50 [2, 4] [nM]	Selectivity Class DYRK1A vs. CLK1 [2]	Selectivity Class DYRK1A vs. DYRK1B [2]	IC50 ([1]; IC50 class A to E) [nM]	IC50 ([2]; IC50 class A to E, read-out: Potency Class DYRK1A) [nM]	IC50 ([2]; read-out: IC50 on DYRK1A (most potent DYRK1A inhibitors)) [nM]
O=C1NC(NCC2CCCCC2)=N/C1=C\c1ccc2ncccc2c1 [Compound 45, (4Z)-2-(Cyclohexylmethylamino)-4-(6-quinolylmethylene)-1H-imidazol-5-one]	> 50	> 50	IV (ratio between 0.1 and 0.5 fold)	II (ratio between 2 and 10 fold)			
COC[C@@H](CC(C)C)NC1=N/C(=C\c2ccc3cnccc3c2)C(=O)N1 [Compound 60, (4Z)-4-(6-isoquinolylmethylene)-2-[[(1R)-1-(methoxymethyl)-3-methyl-butyl]amino]-1H-imidazol-5-one]	> 50	> 50	II (ratio between 2 and 10 fold)	III (ratio between 0.5 and 2 fold)			
CC(C)C[C@H](CO)NC1=N/C(=C\c2ccc3cnccc3c2)C(=O)N1 [Compound 59, (4Z)-2-[[(1R)-1-(hydroxymethyl)-3-methyl-butyl]amino]-4-(6-isoquinolylmethylene)-1H-imidazol-5-one]	> 50	> 50	III (ratio between 0.5 and 2 fold)	III (ratio between 0.5 and 2 fold)			
O=C1NC(NC2CCCCC2)=N/C1=C\c1ccc2ncccc2c1 [Compound 43, (4Z)-2-(Cyclohexylamino)-4-(6-quinolylmethylene)-1H-imidazol-5-one]	> 50	> 50	III (ratio between 0.5 and 2 fold)	II (ratio between 2 and 10 fold)			
COC[C@H](NC1=N/C(=C\c2ccc3cnncc3c2)C(=O)N1)c1ccccc1 [Compound 73, (4Z)-2-[[(1R)-2-methoxy-1-phenyl-ethyl]amino]-4-(phthalazin-6-ylmethylene)-1H-imidazol-5-one]	> 50	> 50	III (ratio between 0.5 and 2 fold)	III (ratio between 0.5 and 2 fold)			
CN1C(=O)/C(=C/c2ccc3ncccc3c2)N=C1NC1CCCCCC1 [Compound 85, (5Z)-2-(Cycloheptylamino)-3-methyl-5-(quinolin-6-ylmethylene)imidazol-4-one]	> 50	> 50	IV (ratio between 0.1 and 0.5 fold)	III (ratio between 0.5 and 2 fold)			
O=C1NC(N[C@@H]2CCCOC2)=N/C1=C\c1ccc2nccnc2c1 [Compound 39, (4Z)-4-(quinoxalin-6-ylmethylene)-2-[[(3R)-tetrahydropyran-3-yl]amino]-1H-imidazol-5-one]	> 50	25 to 50	III (ratio between 0.5 and 2 fold)	II (ratio between 2 and 10 fold)			
O=C1NC(NCc2ccccc2)=N/C1=C\c1ccc2cnccc2c1 [Compound 62, (4Z)-2-(benzylamino)-4-(6-isoquinolylmethylene)-1H-imidazol-5-one]	> 50	> 50	V (ratio >0.1 fold (most CLK1- or DYRK1B-selective compounds))	IV (ratio between 0.1 and 0.5 fold)			
CO[C@H]1CCC[C@@H]1NC1=N/C(=C\c2ccc3nccnc3c2)C(=O)N1 [Compound 5, (4Z)-2-[[(1S,2S)-2-Methoxycyclopentyl]amino]-4-(quinoxalin-6-ylmethylene)-1H-imidazol-5-one]	> 50	> 50	III (ratio between 0.5 and 2 fold)	II (ratio between 2 and 10 fold)			
CC(C)C[C@@H](CF)NC1=N/C(=C\c2ccc3nccnc3c2)C(=O)N1 [Compound 15, (4Z)-2-[[(1S)-1-(Fluoromethyl)-3-methyl-butyl]amino]-4-(quinoxalin-6-ylmethylene)-1H-imidazol-5-one]	> 50	> 50	III (ratio between 0.5 and 2 fold)	III (ratio between 0.5 and 2 fold)			
CCOC[C@@H](CC(C)C)NC1=N/C(=C\c2ccc3nccnc3c2)C(=O)N1 [Compound 11, (4Z)-2-[[(1R)-1-(ethoxymethyl)-3-methyl-butyl]amino]-4-(quinoxalin-6-ylmethylene)-1H-imidazol-5-one]	> 50	10 to 25	I (ratio of IC50 on CLK1 or DYRK1B over IC50 on DYRK1A ≥10 fold (most DYRK1A-selective compounds))	II (ratio between 2 and 10 fold)			
COC[C@H](NC1=N/C(=C\c2ccc3cnccc3c2)C(=O)N1)c1ccccc1 [Compound 63, (4Z)-4-(6-isoquinolylmethylene)-2-[[(1R)-2-methoxy-1-phenyl-ethyl]amino]-1H-imidazol-5-one]	> 50	> 50	IV (ratio between 0.1 and 0.5 fold)	III (ratio between 0.5 and 2 fold)			
O=C1NC(NC2CCCCCC2)=N/C1=C\c1ccc2ncccc2c1 [Compound 44, (4Z)-2-(cycloheptylamino)-4-(6-quinolylmethylene)-1H-imidazol-5-one]	> 50	> 50	III (ratio between 0.5 and 2 fold)	II (ratio between 2 and 10 fold)			
CC(C)C[C@H](CO)NC1=N/C(=C\c2ccc3nccnc3c2)C(=O)N1 [Compound 9, (4Z)-2-[[(1R)-1-(hydroxymethyl)-3-methyl-butyl]amino]-4-(quinoxalin-6-ylmethylene)-1H-imidazol-5-one]	25 to 50	5 to 10	II (ratio between 2 and 10 fold)	II (ratio between 2 and 10 fold)	25 to 50	5 to 10	≤ 10
Cc1cnc(CNC2=N/C(=C\c3ccc4cnccc4c3)C(=O)N2)cn1 [Compound 64, (4Z)-4-(6-Isoquinolylmethylene)-2-[(5-methylpyrazin-2-yl)methylamino]-1H-imidazol-5-one]	> 50	> 50	III (ratio between 0.5 and 2 fold)	IV (ratio between 0.1 and 0.5 fold)			
CN1C(=O)/C(=C/c2ccc3nccnc3c2)N=C1NC1CCCCC1 [Compound 82, (5Z)-2-(Cyclohexylamino)-3-methyl-5-(quinoxalin-6-ylmethylene)imidazol-4-one]	> 50	> 50	III (ratio between 0.5 and 2 fold)	III (ratio between 0.5 and 2 fold)			
Cc1cnc(CNC2=N/C(=C\c3ccc4nccnc4c3)C(=O)N2)cn1 [Compound 30, (4Z)-2-[(5-methylpyrazin-2-yl)methylamino]-4-(quinoxalin-6-ylmethylene)-1H-imidazol-5-one]	> 50	> 50	IV (ratio between 0.1 and 0.5 fold)	II (ratio between 2 and 10 fold)			
O=C1NC(NC[C@H](O)c2ccccc2)=N/C1=C\c1ccc2nccnc2c1 [Compound 27, (4Z)-2-[[(2R)-2-hydroxy-2-phenyl-ethyl]amino]-4-(quinoxalin-6-ylmethylene)-1H-imidazol-5-one]	> 50	> 50	III (ratio between 0.5 and 2 fold)	II (ratio between 2 and 10 fold)			
